Columns and labels:
Experiment in all cases: relative viability (nuclei count vs DMSO), 5 days (fraction); higher = more cells survive
Afatinib + Pictilisib = compound: CN(C)C/C=C/C(=O)Nc1cc2c(Nc3ccc(F)c(Cl)c3)ncnc2cc1O[C@H]1CCOC1 [Afatinib] + CS(=O)(=O)N1CCN(Cc2cc3nc(-c4cccc5[nH]ncc45)nc(N4CCOCC4)c3s2)CC1 [Pictilisib] (partner 1 µM)
How it was run: (§1)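 Relative viability divides the nuclei count in treated wells by that in vehicle wells. Lung cancer cell lines were seeded in 1536-well plates, dosed by pin tool the next day, and fixed and stained after 5 days in one step with final 0.05% Triton X-100, 1% formaldehyde and 1 ug/ml Hoechst. Dosing was a single drug or a fixed anchor-drug dose plus five library-drug doses (not always all listed) in √10 steps, and values are medians of duplicate plates imaged at 4×.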

Afatinib + Crizotinib = compound: CN(C)C/C=C/C(=O)Nc1cc2c(Nc3ccc(F)c(Cl)c3)ncnc2cc1O[C@H]1CCOC1 [Afatinib] + C[C@@H](Oc1cc(-c2cnn(C3CCNCC3)c2)cnc1N)c1c(Cl)ccc(F)c1Cl [Crizotinib] (partner 1 µM)
How it was run: as §1

Afatinib + Alpelisib = compound: CN(C)C/C=C/C(=O)Nc1cc2c(Nc3ccc(F)c(Cl)c3)ncnc2cc1O[C@H]1CCOC1 [Afatinib] + Cc1nc(NC(=O)N2CCC[C@H]2C(N)=O)sc1-c1ccnc(C(C)(C)C(F)(F)F)c1 [Alpelisib] (partner 2 µM)
How it was run: as §1

Afatinib + Lapatinib = compound: CN(C)C/C=C/C(=O)Nc1cc2c(Nc3ccc(F)c(Cl)c3)ncnc2cc1O[C@H]1CCOC1 [Afatinib] + CS(=O)(=O)CCNCc1ccc(-c2ccc3ncnc(Nc4ccc(OCc5cccc(F)c5)c(Cl)c4)c3c2)o1 [Lapatinib] (partner 2 µM)
How it was run: as §1

Afatinib + Bortezomib = compound: CN(C)C/C=C/C(=O)Nc1cc2c(Nc3ccc(F)c(Cl)c3)ncnc2cc1O[C@H]1CCOC1 [Afatinib] + CC(C)C[C@H](NC(=O)[C@H](Cc1ccccc1)NC(=O)c1cnccn1)B(O)O [Bortezomib] (partner 0.002 µM)
How it was run: as §1

Afatinib + Olaparib = compound: CN(C)C/C=C/C(=O)Nc1cc2c(Nc3ccc(F)c(Cl)c3)ncnc2cc1O[C@H]1CCOC1 [Afatinib] + O=C(c1cc(Cc2n[nH]c(=O)c3ccccc23)ccc1F)N1CCN(C(=O)C2CC2)CC1 [Olaparib] (partner 8 µM)
How it was run: as §1

Afatinib + Navitoclax = compound: CN(C)C/C=C/C(=O)Nc1cc2c(Nc3ccc(F)c(Cl)c3)ncnc2cc1O[C@H]1CCOC1 [Afatinib] + CC1(C)CCC(c2ccc(Cl)cc2)=C(CN2CCN(c3ccc(C(=O)NS(=O)(=O)c4ccc(N[C@H](CCN5CCOCC5)CSc5ccccc5)c(S(=O)(=O)C(F)(F)F)c4)cc3)CC2)C1 [Navitoclax] (partner 0.5 µM)
How it was run: as §1

Afatinib + Foretinib = compound: CN(C)C/C=C/C(=O)Nc1cc2c(Nc3ccc(F)c(Cl)c3)ncnc2cc1O[C@H]1CCOC1 [Afatinib] + COc1cc2c(Oc3ccc(NC(=O)C4(C(=O)Nc5ccc(F)cc5)CC4)cc3F)ccnc2cc1OCCCN1CCOCC1 [Foretinib] (partner 0.25 µM)
How it was run: as §1

Afatinib + Linsitinib = compound: CN(C)C/C=C/C(=O)Nc1cc2c(Nc3ccc(F)c(Cl)c3)ncnc2cc1O[C@H]1CCOC1 [Afatinib] + C[C@]1(O)C[C@@H](c2nc(-c3ccc4ccc(-c5ccccc5)nc4c3)c3c(N)nccn32)C1 [Linsitinib] (partner 1 µM)
How it was run: as §1

Afatinib = compound: CN(C)C/C=C/C(=O)Nc1cc2c(Nc3ccc(F)c(Cl)c3)ncnc2cc1O[C@H]1CCOC1 [Afatinib]
How it was run: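 On vehicle-anchored 1536-well plates, lung cancer cell lines held overnight at 37 °C were pinned with five library-drug doses (not always all listed) spaced by √10. With no medium change over 5 days, they were then fixed, permeabilised and Hoechst-stained in one step and imaged at 4×. MetaXpress counted nuclei, and viability is the median across plates of treated-well over vehicle-well nuclei. Acceptance needed control CV below 25% and at least one doubling.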

Afatinib + Luminespib = compound: CN(C)C/C=C/C(=O)Nc1cc2c(Nc3ccc(F)c(Cl)c3)ncnc2cc1O[C@H]1CCOC1 [Afatinib] + CCNC(=O)c1noc(-c2cc(C(C)C)c(O)cc2O)c1-c1ccc(CN2CCOCC2)cc1 [Luminespib] (partner 0.01 µM)
How it was run: as §1

Afatinib + Dasatinib = compound: CN(C)C/C=C/C(=O)Nc1cc2c(Nc3ccc(F)c(Cl)c3)ncnc2cc1O[C@H]1CCOC1 [Afatinib] + Cc1nc(Nc2ncc(C(=O)Nc3c(C)cccc3Cl)s2)cc(N2CCN(CCO)CC2)n1 [Dasatinib] (partner 0.075 µM)
How it was run: as §1

Afatinib + Phenformin = compound: CN(C)C/C=C/C(=O)Nc1cc2c(Nc3ccc(F)c(Cl)c3)ncnc2cc1O[C@H]1CCOC1 [Afatinib] + N=C(N)NC(=N)NCCc1ccccc1 [Phenformin] (partner 250 µM)
How it was run: as §1

Afatinib + OSI-027 = compound: CN(C)C/C=C/C(=O)Nc1cc2c(Nc3ccc(F)c(Cl)c3)ncnc2cc1O[C@H]1CCOC1 [Afatinib] + COc1cccc2cc(-c3nc([C@H]4CC[C@H](C(=O)O)CC4)n4ncnc(N)c34)[nH]c12 [OSI-027] (partner 0.5 µM)
How it was run: as §1

Afatinib + Tozasertib = compound: CN(C)C/C=C/C(=O)Nc1cc2c(Nc3ccc(F)c(Cl)c3)ncnc2cc1O[C@H]1CCOC1 [Afatinib] + Cc1cc(Nc2cc(N3CCN(C)CC3)nc(Sc3ccc(NC(=O)C4CC4)cc3)n2)n[nH]1 [Tozasertib] (partner 0.1 µM)
How it was run: as §1

NCI-H1299 gave a relative viability (Afatinib + Pictilisib; first compound 0.005 µM) of 0.84, a relative viability (Afatinib + Pictilisib; first compound 0.01581 µM) of 0.828 and a relative viability (Afatinib + Pictilisib; first compound 0.05 µM) of 0.927. The relative viability (Afatinib + Pictilisib; first compound 0.1581 µM) was 0.647, the relative viability (Afatinib + Pictilisib; first compound 0.5 µM) was 0.68 and the relative viability (Afatinib + Crizotinib; first compound 0.005 µM) was 1.01. It also gave a relative viability (Afatinib + Crizotinib; first compound 0.01581 µM) of 0.961, a relative viability (Afatinib + Crizotinib; first compound 0.05 µM) of 0.983 and a relative viability (Afatinib + Crizotinib; first compound 0.1581 µM) of 0.97. The relative viability (Afatinib + Crizotinib; first compound 0.5 µM) was 0.934, the relative viability (Afatinib + Alpelisib; first compound 0.005 µM) was 1.05 and the relative viability (Afatinib + Alpelisib; first compound 0.01581 µM) was 1.04. The relative viability (Afatinib + Alpelisib; first compound 0.05 µM) was 1.12, the relative viability (Afatinib + Alpelisib; first compound 0.1581 µM) was 1.08 and the relative viability (Afatinib + Alpelisib; first compound 0.5 µM) was 1.04. It also gave a relative viability (Afatinib + Lapatinib; first compound 0.005 µM) of 0.98, a relative viability (Afatinib + Lapatinib; first compound 0.01581 µM) of 0.946 and a relative viability (Afatinib + Lapatinib; first compound 0.05 µM) of 0.973. It also gave a relative viability (Afatinib + Lapatinib; first compound 0.1581 µM) of 0.969, a relative viability (Afatinib + Lapatinib; first compound 0.5 µM) of 0.96 and a relative viability (Afatinib + Bortezomib; first compound 0.005 µM) of 0.983. For the same cell line, the relative viability (Afatinib + Bortezomib; first compound 0.01581 µM) was 0.978, the relative viability (Afatinib + Bortezomib; first compound 0.05 µM) was 1.12 and the relative viability (Afatinib + Bortezomib; first compound 0.1581 µM) was 1.02. For the same cell line, the relative viability (Afatinib + Bortezomib; first compound 0.5 µM) was 1.04, the relative viability (Afatinib + Olaparib; first compound 0.005 µM) was 0.981 and the relative viability (Afatinib + Olaparib; first compound 0.01581 µM) was 0.948. It also gave a relative viability (Afatinib + Olaparib; first compound 0.05 µM) of 0.991, a relative viability (Afatinib + Olaparib; first compound 0.1581 µM) of 1.02 and a relative viability (Afatinib + Olaparib; first compound 0.5 µM) of 0.988. For the same cell line, the relative viability (Afatinib + Navitoclax; first compound 0.005 µM) was 1.02, the relative viability (Afatinib + Navitoclax; first compound 0.01581 µM) was 1.02 and the relative viability (Afatinib + Navitoclax; first compound 0.05 µM) was 1.13. For the same cell line, the relative viability (Afatinib + Navitoclax; first compound 0.1581 µM) was 1.11, the relative viability (Afatinib + Navitoclax; first compound 0.5 µM) was 1.06 and the relative viability (Afatinib + Foretinib; first compound 0.005 µM) was 1.14. The relative viability (Afatinib + Foretinib; first compound 0.01581 µM) was 1.06, the relative viability (Afatinib + Foretinib; first compound 0.05 µM) was 1.15 and the relative viability (Afatinib + Foretinib; first compound 0.1581 µM) was 1.12. It also gave a relative viability (Afatinib + Foretinib; first compound 0.5 µM) of 1.17, a relative viability (Afatinib + Linsitinib; first compound 0.005 µM) of 0.978 and a relative viability (Afatinib + Linsitinib; first compound 0.01581 µM) of 0.951. It also gave a relative viability (Afatinib + Linsitinib; first compound 0.05 µM) of 0.987, a relative viability (Afatinib + Linsitinib; first compound 0.1581 µM) of 1.06 and a relative viability (Afatinib + Linsitinib; first compound 0.5 µM) of 0.97. For the same cell line, the relative viability (Afatinib; 0.005 µM) was 0.992, the relative viability (Afatinib; 0.01581 µM) was 0.992 and the relative viability (Afatinib; 0.05 µM) was 1.06. For the same cell line, the relative viability (Afatinib; 0.1581 µM) was 1.01 and the relative viability (Afatinib; 0.5 µM) was 0.98.
In the case of NCI-H1623, the relative viability (Afatinib + Luminespib; first compound 0.005 µM) is reported as 0.489, the relative viability (Afatinib + Luminespib; first compound 0.01581 µM) is reported as 0.454 and the relative viability (Afatinib + Luminespib; first compound 0.05 µM) is reported as 0.325. For the same cell line, the relative viability (Afatinib + Luminespib; first compound 0.1581 µM) was 0.214, the relative viability (Afatinib + Luminespib; first compound 0.5 µM) was 0.281 and the relative viability (Afatinib + Dasatinib; first compound 0.005 µM) was 0.446. It also gave a relative viability (Afatinib + Dasatinib; first compound 0.01581 µM) of 0.472, a relative viability (Afatinib + Dasatinib; first compound 0.05 µM) of 0.375 and a relative viability (Afatinib + Dasatinib; first compound 0.1581 µM) of 0.198. For the same cell line, the relative viability (Afatinib + Dasatinib; first compound 0.5 µM) was 0.226, the relative viability (Afatinib + Phenformin; first compound 0.005 µM) was 0.548 and the relative viability (Afatinib + Phenformin; first compound 0.01581 µM) was 0.499. The relative viability (Afatinib + Phenformin; first compound 0.05 µM) was 0.36, the relative viability (Afatinib + Phenformin; first compound 0.1581 µM) was 0.16 and the relative viability (Afatinib + Phenformin; first compound 0.5 µM) was 0.431. The relative viability (Afatinib + OSI-027; first compound 0.005 µM) was 0.394, the relative viability (Afatinib + OSI-027; first compound 0.01581 µM) was 0.324 and the relative viability (Afatinib + OSI-027; first compound 0.05 µM) was 0.255. It also gave a relative viability (Afatinib + OSI-027; first compound 0.1581 µM) of 0.189, a relative viability (Afatinib + OSI-027; first compound 0.5 µM) of 0.243 and a relative viability (Afatinib + Foretinib; first compound 0.005 µM) of 0.694. For the same cell line, the relative viability (Afatinib + Foretinib; first compound 0.01581 µM) was 0.597, the relative viability (Afatinib + Foretinib; first compound 0.05 µM) was 0.414 and the relative viability (Afatinib + Foretinib; first compound 0.1581 µM) was 0.213. For the same cell line, the relative viability (Afatinib + Tozasertib; first compound 0.005 µM) was 0.397, the relative viability (Afatinib + Tozasertib; first compound 0.01581 µM) was 0.346 and the relative viability (Afatinib + Tozasertib; first compound 0.05 µM) was 0.285. For the same cell line, the relative viability (Afatinib + Tozasertib; first compound 0.1581 µM) was 0.121, the relative viability (Afatinib + Tozasertib; first compound 0.5 µM) was 0.148 and the relative viability (Afatinib; 0.005 µM) was 0.822. The relative viability (Afatinib; 0.01581 µM) was 0.813, the relative viability (Afatinib; 0.05 µM) was 0.42 and the relative viability (Afatinib; 0.1581 µM) was 0.221. The relative viability (Afatinib; 0.5 µM) was 0.267.
